From PubChem BioAssay (NCI)
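Each compound was tested at five concentrations against cells in 96-well plates for 48 hours. At the TGI there is no net growth.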

Legend:
Assay in all cases: NCI-60 cell line screen, 48 h
BT-549 breast = tested on: BT-549 breast
HCT-15 colon = tested on: HCT-15 colon
CAKI-1 renal = tested on: CAKI-1 renal
RPMI-8226 leukemia = tested on: RPMI-8226 leukemia
SNB-19 CNS = tested on: SNB-19 CNS
786-0 renal = tested on: 786-0 renal
EKVX NSCLC = tested on: EKVX NSCLC
RXF 393 renal = tested on: RXF 393 renal
COLO 205 colon = tested on: COLO 205 colon
PC-3 prostate = tested on: PC-3 prostate

## CC(CC(C#N)(c1ccccc1)c1ccccc1)N1CCCCC1 (configuration not stated)
BT-549 breast
  TGI: > 100 µM
HCT-15 colon
  TGI: 68.6 µM
CAKI-1 renal
  TGI: > 100 µM
RPMI-8226 leukemia
  TGI: 40.7 µM
SNB-19 CNS
  TGI: > 100 µM
786-0 renal
  TGI: 80.3 µM
EKVX NSCLC
  TGI: 56.3 µM
RXF 393 renal
  TGI: > 100 µM
COLO 205 colon
  TGI: 32.9 µM
PC-3 prostate
  TGI: > 100 µM

## O=C1/C(=C/c2ccccc2S)N=C(c2ccccc2)N1c1nc2ccc(Sc3ccccc3)cc2[nH]1
BT-549 breast
  TGI: 61.1 µM
HCT-15 colon
  TGI: > 100 µM
CAKI-1 renal
  TGI: > 100 µM
RPMI-8226 leukemia
  TGI: 65.7 µM
SNB-19 CNS
  TGI: > 100 µM
786-0 renal
  TGI: 87.1 µM
EKVX NSCLC
  TGI: > 100 µM
RXF 393 renal
  TGI: > 100 µM
COLO 205 colon
  TGI: 34.6 µM
PC-3 prostate
  TGI: > 100 µM

## CCOP(=O)(OCC)C1C(CO)OC(n2ccc(=O)[nH]c2=O)C1O (configuration not stated)
BT-549 breast
  TGI: > 100 µM
HCT-15 colon
  TGI: > 100 µM
CAKI-1 renal
  TGI: > 100 µM
RPMI-8226 leukemia
  TGI: > 100 µM
SNB-19 CNS
  TGI: > 100 µM
786-0 renal
  TGI: > 100 µM
EKVX NSCLC
  TGI: > 100 µM
RXF 393 renal
  TGI: > 100 µM
PC-3 prostate
  TGI: > 100 µM

## COc1cc2c(cc1OCCCCOc1cc(-c3ccc(F)cc3)nc(C)n1)N=C[C@@H]1CCCN1C2=O
BT-549 breast
  TGI: 2.28 µM
HCT-15 colon
  TGI: 2.09 µM
CAKI-1 renal
  TGI: 2.05 µM
RPMI-8226 leukemia
  TGI: 0.36 µM
SNB-19 CNS
  TGI: 4.75 µM
786-0 renal
  TGI: 6.94 µM
EKVX NSCLC
  TGI: 5.18 µM
RXF 393 renal
  TGI: 3.22 µM
COLO 205 colon
  TGI: 1.17 µM
PC-3 prostate
  TGI: 6.07 µM

## Cc1ccccc1OC(C)C(=O)NN1C(=O)CC(=O)N(c2ccc(Cl)cc2)C1=S (configuration not stated)
BT-549 breast
  TGI: > 100 µM
HCT-15 colon
  TGI: > 100 µM
CAKI-1 renal
  TGI: > 100 µM
RPMI-8226 leukemia
  TGI: > 100 µM
SNB-19 CNS
  TGI: > 100 µM
786-0 renal
  TGI: > 100 µM
EKVX NSCLC
  TGI: > 100 µM
RXF 393 renal
  TGI: 78.3 µM
COLO 205 colon
  TGI: 68.3 µM
PC-3 prostate
  TGI: > 100 µM

## O=C1C(c2c(O)[nH]c3ccc(S(=O)(=O)O)cc23)=Nc2ccccc21
BT-549 breast
  TGI: > 100 µM
HCT-15 colon
  TGI: > 100 µM
CAKI-1 renal
  TGI: > 100 µM
RPMI-8226 leukemia
  TGI: > 100 µM
SNB-19 CNS
  TGI: > 100 µM
786-0 renal
  TGI: > 100 µM
EKVX NSCLC
  TGI: > 100 µM
RXF 393 renal
  TGI: > 100 µM
COLO 205 colon
  TGI: > 100 µM
PC-3 prostate
  TGI: > 100 µM

## Nc1nn2c(C(Br)Br)cc(C(Br)Br)nc2c1[N+](=O)[O-]
BT-549 breast
  TGI: 2.09 µM
HCT-15 colon
  TGI: 2.34 µM
CAKI-1 renal
  TGI: 0.954 µM
RPMI-8226 leukemia
  TGI: 1.72 µM
SNB-19 CNS
  TGI: 3.05 µM
786-0 renal
  TGI: 1.08 µM
EKVX NSCLC
  TGI: 6.45 µM
RXF 393 renal
  TGI: 4.35 µM
COLO 205 colon
  TGI: 1.94 µM
PC-3 prostate
  TGI: 2.73 µM

## C=C(Cl)/C(=C\Cl)CCC(Br)C(C)C (configuration not stated)
BT-549 breast
  TGI: > 100 µM
CAKI-1 renal
  TGI: > 100 µM
RPMI-8226 leukemia
  TGI: > 100 µM
SNB-19 CNS
  TGI: > 100 µM
786-0 renal
  TGI: > 100 µM
EKVX NSCLC
  TGI: > 100 µM
RXF 393 renal
  TGI: > 100 µM
COLO 205 colon
  TGI: > 100 µM
PC-3 prostate
  TGI: > 100 µM

## c1ccc2c(c1)[nH]c1nc3cc(-c4ccc5nc6c(nc5c4)[nH]c4ccccc46)ccc3nc12
BT-549 breast
  TGI: > 100 µM
HCT-15 colon
  TGI: > 32.3 µM
CAKI-1 renal
  TGI: > 100 µM
RPMI-8226 leukemia
  TGI: > 100 µM
SNB-19 CNS
  TGI: > 100 µM
786-0 renal
  TGI: > 100 µM
EKVX NSCLC
  TGI: > 100 µM
RXF 393 renal
  TGI: > 100 µM
PC-3 prostate
  TGI: > 100 µM

## C1CCSCCCCSCCCCSCCCCSC1
BT-549 breast
  TGI: > 100 µM
HCT-15 colon
  TGI: > 100 µM
CAKI-1 renal
  TGI: > 100 µM
RPMI-8226 leukemia
  TGI: > 100 µM
SNB-19 CNS
  TGI: > 100 µM
786-0 renal
  TGI: > 100 µM
EKVX NSCLC
  TGI: > 100 µM
RXF 393 renal
  TGI: > 100 µM
COLO 205 colon
  TGI: > 100 µM
PC-3 prostate
  TGI: > 100 µM
